The text below walks through data of PMC5632197 (Bioorganic & medicinal chemistry, 2017).

As usually defined, the IC50 is the concentration that inhibits the measured activity by half. By EC50 is commonly meant the midpoint of the concentration-response curve.

Entries after “also recorded” stand apart in the source; their conditions may differ. Like-named read-outs stand apart in the source and are kept apart here.

One series relates to CNS stage of HAT. To be noted: cited from earlier work.
For series [1] the following is noted: mice; cited from earlier work.
The next series deals with T. brucei. To be noted: 7-day 50 mg/kg/day intraperitoneal dosage; cited from earlier work.
For series [2], the target named is T1, T. brucei AdoMetDC/prozyme (Trypanosoma brucei brucei, UniProt P50244).
T1 sequence (P50244 86-370 limits assumed): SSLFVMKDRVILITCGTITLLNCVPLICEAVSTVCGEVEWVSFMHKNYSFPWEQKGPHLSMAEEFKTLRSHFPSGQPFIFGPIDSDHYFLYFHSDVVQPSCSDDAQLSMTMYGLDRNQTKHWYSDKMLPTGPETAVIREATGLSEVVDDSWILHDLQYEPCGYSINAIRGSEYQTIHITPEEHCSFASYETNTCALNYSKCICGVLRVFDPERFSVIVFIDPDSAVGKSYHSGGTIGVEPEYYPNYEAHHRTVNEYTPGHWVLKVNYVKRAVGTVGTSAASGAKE
As to the kind of experiment: T. brucei AdoMetDC enzyme activity assay. To be noted: for fold less active against AdoMetDC compared to parent: compared to 1 (27 versus 11a), IC50 with PI. It is filed as biochemical.

In series [3] the test system is T. brucei Lister 427 bloodstream-form cells. Kind of series: T. brucei cell growth inhibition assay. It is filed as cell-based, Trypanosoma brucei brucei.
Where [4] appears, read: AdoMetDC IC50 with PI, with 30 min pre-incubation, triplicate.
The mark [5] stands for this setting: AdoMetDC IC50 without PI, without pre-incubation, triplicate.

As to `CN(C/C=C\CN)C[C@H]1O[C@@H](n2cnc3c(N)ncnc32)[C@H](O)[C@@H]1O` [Compound 1, 5'-(((Z)-4-amino-2-butenyl)methylamino)-5'-deoxyadenosine], the “cure in mouse model of the CNS stage of HAT” value with CNS stage of HAT is listed as “not efficacious; also recorded: neither compound led to a cure”. Also, the brain-to-blood ratio in series [1] is 1.7%. In addition, in the series on T. brucei, the “cure of mice infected with T. brucei” value is “sterile cure”.

As for `Cc1nc2c(N)ncnc2n1[C@@H]1O[C@H](CN(C)C/C=C\CNC(=O)OC(C)C)[C@@H](O)[C@H]1O` [Compound 3c], the IC50 in series [2] (setting [4]) and in series [2] (setting [5]) was above 50 µM in each case.

Take `CCCC(=O)NC/C=C\CN(C)C[C@H]1O[C@@H](n2cnc3c(N)ncnc32)[C@H](O)[C@@H]1O` [Compound 5c]: the IC50 in series [2] (setting [4]) and in series [2] (setting [5]) was above 50 µM each time.

In the case of `CC(=O)NC/C=C\CN(C)C[C@H]1O[C@@H](n2cnc3c(N)ncnc32)[C@H](OC(C)=O)[C@@H]1OC(C)=O` [Compound 6a], the IC50 in series [2] (setting [4]) and in series [2] (setting [5]) was above 50 µM throughout.

Take `CCC(=O)NC/C=C\CN(C)C[C@H]1O[C@@H](n2cnc3c(N)ncnc32)[C@H](OC(C)=O)[C@@H]1OC(C)=O` [Compound 6b]: the IC50 in series [2] (setting [4]) and in series [2] (setting [5]) was above 50 µM in each case.

As to `CCCC(=O)NC/C=C\CN(C)C[C@H]1O[C@@H](n2cnc3c(N)ncnc32)[C@H](OC(C)=O)[C@@H]1OC(C)=O` [Compound 6c], the IC50 in series [2] (setting [4]) and in series [2] (setting [5]) was above 50 µM in each case.

On to `Cc1nc2c(N)ncnc2n1[C@@H]1O[C@H](CN(C)C/C=C\CNC(=O)OC(C)(C)C)[C@H]2OC(C)(C)O[C@H]21` [Compound 10a], for which the IC50 in series [2] (setting [4]) and in series [2] (setting [5]) was above 50 µM throughout.

On to `Cc1nc2c(N)ncnc2n1[C@@H]1O[C@H](CN(C/C=C\CNC(=O)OC(C)(C)C)C2CC2)[C@H]2OC(C)(C)O[C@H]21` [Compound 10c], for which the IC50 in series [2] (setting [5]) is above 50 µM.

Turning to `CN(C/C=C\CN)C[C@H]1O[C@@H](n2cnc3c(N)ncnc32)[C@@H]2OC(C)(C)O[C@@H]21` [Compound 11a], the “fold reduced activity in T. b. brucei cell growth assay compared to 1” value in series [3] (EC50 compared to parent MDL 73811 (1)) is recorded as ~ 50 fold. The “fold less active against AdoMetDC compared to parent” value (“fold less active against AdoMetDC” for short) in series [2] is ~ 50 fold.

As to `CC1(C)O[C@@H]2[C@H](O1)[C@@H](CN(C/C=C\CN)CCF)O[C@H]2n1cnc2c(N)ncnc21` [Compound 11b], the IC50 in series [2] (setting [4]) and in series [2] (setting [5]) was above 50 µM each time.

Regarding `Cc1nc2c(N)ncnc2n1[C@@H]1O[C@H](CN(C/C=C\CN)C2CC2)[C@H]2OC(C)(C)O[C@H]21` [Compound 11c], the IC50 in series [2] (setting [4]) and in series [2] (setting [5]) was above 50 µM in each case.

As for `Cc1nc2c(N)ncnc2n1[C@@H]1O[C@H](CN(C/C=C\CN)CCO)[C@H]2OC(C)(C)O[C@H]21` [Compound 11d], the IC50 in series [2] (setting [4]) and in series [2] (setting [5]) was above 50 µM throughout.

`NC/C=C\CN(CCF)C[C@H]1O[C@@H](n2cnc3c(N)ncnc32)[C@H](O)[C@@H]1O` [Compound 12b] had a 50% inhibitory concentration (IC50) in series [2] (setting [5]) above 50 µM.

On to `Cc1nc2c(N)ncnc2n1[C@@H]1O[C@H](CN(C/C=C\CN)C2CC2)[C@@H](O)[C@H]1O` [Compound 12c], for which the IC50 in series [2] (setting [4]) and in series [2] (setting [5]) was above 50 µM throughout.

Take `CN(CC=CCN)CC1OC(n2cnc3c(N)ncnc32)C2OC3(CCCCC3)OC12` (stereo not drawn) [Compound 22]: the concentration for a half-maximal effect (EC50) in series [3] (read-out: EC50 (T. b. brucei), 48 h cell viability, triplicate) is above 25 µM. For the same compound, the IC50 in series [2] (read-out: AdoMetDC IC50, pre-incubation not stated) was above 50 µM.

`CNc1ncnc2c1ncn2[C@@H]1O[C@H](CN(C)C/C=C\CN)[C@H]2OC(C)(C)O[C@H]21` [Compound 27] registered an IC50 in series [2] (setting [5]) above 50 µM. Also, the “fold less active against AdoMetDC” value in series [2] is given as 3- to 4 fold.

`CNc1ncnc2c1ncn2[C@@H]1O[C@H](CN(C)C/C=C\CN)[C@@H](O)[C@H]1O` [Compound 28a]: the “fold less active against AdoMetDC” value in series [2] is reported as 3- to 4 fold.

With `CN(C/C=C\CN)C[C@H]1O[C@@H](n2cnc3c(N(C)C)ncnc32)[C@H](O)[C@@H]1O` [Compound 28b], in series [2], the “fold less active against AdoMetDC” value was ~ 20 fold.

Take `CC(C)Nc1ncnc2c1ncn2[C@@H]1O[C@H](CN(C)C/C=C\CN)[C@@H](O)[C@H]1O` [Compound 28c]: the “fold less active against AdoMetDC” value in series [2] is 3- to 4 fold.

In the case of `CCOc1ncnc2c1ncn2[C@@H]1O[C@H](CN(C)C/C=C\CN)[C@@H](O)[C@H]1O` [Compound 28d], the “fold less active against AdoMetDC” value in series [2] is listed as around 16 fold.

For the compound `CN(C/C=C\CN)C[C@H]1O[C@@H](n2cnc3cncnc32)[C@@H]2OC(C)(C)O[C@@H]21` [Compound 30], the concentration for half-maximal inhibition (IC50) in series [2] (setting [4]) and in series [2] (setting [5]) was above 50 µM throughout.

For `CCCCCCCCC(=O)Nc1ncnc2c1ncn2[C@@H]1O[C@H](CN(C)C/C=C\CN)[C@H]2OC(C)(C)O[C@H]21` [Compound 31], the “fold more potent inhibition of T.b. brucei proliferation than 11a” value in series [3] (compared to comparator 11a) was 2.6 fold. In series [2] (compared to comparator 11a), the “fold more potent inhibition of AdoMetDC enzymatic activity than 11a” value worked out at 3.5 fold.
